Assay results taken from patent publication US8609836B2, “4-aryl-2-anilino-pyrimidines” (Janssen Pharmaceutica NV, priority 2008, dated 2013).

Experiments:
H1299 = experiment: Cellular proliferation assay (Alamar blue), H1299; assay type: cell-based; settings: Homo sapiens, NCI-H1299; 10% FCS; 72 hours with compound; Alamar blue 4 h
Protocol: (§1) […] functional properties of these compounds were tested in cellular proliferation assays on a panel of different cell lines in the presence of 10% FCS serum (37° C. and 5% (v/v) CO2). In a first step these cells were seeded and incubated for 24 hours in the absence of compound. In the second step the cells were incubated for 72 hours with the compounds to be tested for 72 hours. The viable cell number was finally assessed in a standard Alamar blue cell viability assay.
(§2) The viable cell number was assessed by incubation for either 4 h (HCT-116, H1299) 6 h (U87-MG) or 24 h (A2780, MDA-MB-231) with Alamar blue (Resazurin 9 μg/ml, K-Ferrocyanide 90 μM, K-Ferricyanide 90 μM) and the converted fluorescent product was quantified on a fluorescent plate reader (544 nm/590 nm). Effect of the compounds is calculated as of on control cells.

HCT-116 = experiment: Cellular proliferation assay (Alamar blue), HCT-116; assay type: cell-based; settings: Homo sapiens, 10% FCS, 72 hours with compound, Alamar blue 4 h
Protocol: as §1, §2

PLK4 (h) = PLK4 (h) (Homo sapiens, UniProt O00444); experiment: PLK-4 human kinase inhibition, scintillation proximity assay (SPA); assay type: biochemical; settings: read-out: PLK4 pIC50 (converted)
Chain of PLK4 (h) (O00444 whole entry): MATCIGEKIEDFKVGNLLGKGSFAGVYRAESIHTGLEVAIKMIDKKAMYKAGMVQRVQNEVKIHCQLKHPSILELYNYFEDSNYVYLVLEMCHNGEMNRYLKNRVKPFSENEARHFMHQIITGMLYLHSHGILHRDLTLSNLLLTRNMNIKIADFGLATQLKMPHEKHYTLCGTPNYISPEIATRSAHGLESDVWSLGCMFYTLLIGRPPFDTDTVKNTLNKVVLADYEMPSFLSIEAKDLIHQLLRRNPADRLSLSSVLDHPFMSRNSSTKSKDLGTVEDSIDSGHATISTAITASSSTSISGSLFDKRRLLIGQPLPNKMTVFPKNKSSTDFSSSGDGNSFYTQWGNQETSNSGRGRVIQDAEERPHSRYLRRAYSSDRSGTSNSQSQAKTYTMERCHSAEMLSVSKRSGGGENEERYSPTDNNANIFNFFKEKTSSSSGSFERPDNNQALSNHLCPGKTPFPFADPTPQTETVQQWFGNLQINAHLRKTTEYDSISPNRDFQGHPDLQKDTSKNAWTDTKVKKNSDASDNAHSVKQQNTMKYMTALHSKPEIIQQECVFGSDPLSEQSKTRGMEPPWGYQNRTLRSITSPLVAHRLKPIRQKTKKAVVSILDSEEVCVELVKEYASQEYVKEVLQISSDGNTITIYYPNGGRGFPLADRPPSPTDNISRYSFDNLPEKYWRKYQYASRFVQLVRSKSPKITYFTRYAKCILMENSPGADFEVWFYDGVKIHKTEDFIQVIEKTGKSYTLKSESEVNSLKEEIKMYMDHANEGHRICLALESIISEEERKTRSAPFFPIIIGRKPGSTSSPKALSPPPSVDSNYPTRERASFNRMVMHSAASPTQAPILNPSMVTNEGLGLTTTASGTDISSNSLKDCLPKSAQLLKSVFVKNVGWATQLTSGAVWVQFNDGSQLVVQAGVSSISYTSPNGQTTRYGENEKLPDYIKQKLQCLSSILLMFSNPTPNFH
Protocol: (§3) In the SPA technology the activity of the kinase of interest is measured using an appropriate biotinylated substrate that is incubated with the aforementioned kinase protein in the presence of (^33P) radiolabeled ATP. (^33P) Phosphorylation of the substrate is subsequently measured through binding of the phosphorylated substrate to streptavidine coated beads that are based on the scintillant poly(vinyl toluene) (PVT-Beads). The scintillation intensity is detected by imaging on Leadseeker.
(§4) All kinases are pre-diluted to a 10× working concentration prior to addition into the assay. The composition of the dilution buffer for each kinase is detailed below.
(6.0 μCi/ml). After incubation of 60 minutes at room temperature, the reaction is stopped by addition of 40 μL of stop solution containing 8.7 mM EDTA, BSA 0.17%, 0.17% Triton X-100, 1.7 mg/ml SPA beads (GE-healthcare). The plate is centrifuged and read for Scintillation imaging on Leadseeker.

CDK1/CyclinB (h) = CDK1/CyclinB (h) (Homo sapiens, UniProt P06493); experiment: CDK1/CyclinB human kinase inhibition, Invitrogen's FRET assay (Z'lyte); assay type: biochemical; settings: read-out: CDK1 pIC50 (converted)
Chain of CDK1/CyclinB (h) (P06493 whole entry): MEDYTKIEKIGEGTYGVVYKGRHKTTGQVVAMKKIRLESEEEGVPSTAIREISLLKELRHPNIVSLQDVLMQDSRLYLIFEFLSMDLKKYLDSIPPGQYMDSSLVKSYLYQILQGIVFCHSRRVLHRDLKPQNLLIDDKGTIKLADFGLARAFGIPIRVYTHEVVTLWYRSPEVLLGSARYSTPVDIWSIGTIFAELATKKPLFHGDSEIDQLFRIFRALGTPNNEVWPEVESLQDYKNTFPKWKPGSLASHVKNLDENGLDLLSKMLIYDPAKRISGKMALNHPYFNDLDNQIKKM
Chain of CDK1/CyclinB (h) (P14635 whole entry partner): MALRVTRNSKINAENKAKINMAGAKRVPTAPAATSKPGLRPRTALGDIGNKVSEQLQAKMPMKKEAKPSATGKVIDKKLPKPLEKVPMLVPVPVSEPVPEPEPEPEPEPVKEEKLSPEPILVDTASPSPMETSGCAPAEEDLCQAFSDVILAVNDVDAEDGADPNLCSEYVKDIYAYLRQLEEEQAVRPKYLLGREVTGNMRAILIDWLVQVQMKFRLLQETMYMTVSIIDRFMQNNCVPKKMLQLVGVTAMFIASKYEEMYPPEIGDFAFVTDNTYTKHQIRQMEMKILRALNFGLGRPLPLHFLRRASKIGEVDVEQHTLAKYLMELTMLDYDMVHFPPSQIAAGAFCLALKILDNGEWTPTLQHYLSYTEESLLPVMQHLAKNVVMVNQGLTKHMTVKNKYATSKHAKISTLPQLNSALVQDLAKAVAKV
Protocol: (§5) The in vitro inhibition of a panel of kinases was assessed using either the scintillation proximity assay (SPA) as described by Cook, N. D. et al., Advances in Experimental Medicine and Biology (1991), 36; p. 525-528.
as §4
In a final reaction volume of 10 μl, CDK1/CyclinB (h) (0.2 μg/ml) is incubated with 50 mM Hepes pH 7.5, 10 mM MgCl2, 1 mM EGTA, 0.01% Brij-35, 2 μM Z'lyte Ser/Thr peptide 12 and 10 μM ATP (Invitrogen's FRET assay). After incubation of 60 minutes at room temperature, the reaction is stopped by addition of 5 μL development reagent containing protease mix. After 60 minutes room temperature the development reaction is stopped by adding 5 μl stop solution. The plate is then read in fluorescence plate reader with excitation: 390 nm and dual emission: 460 and 538 nm. Emission ratio is determined to the formula=Emission signal intensity at 460 nm/Emission signal intensity at 538 nm.

A2780 = experiment: Cellular proliferation assay (Alamar blue), A2780; assay type: cell-based; settings: Homo sapiens, 10% FCS, 72 hours with compound, Alamar blue 24 h, read-out: A2780 (cellular proliferation assay, Table 4) (converted)
Protocol: as §1, §2

U87-MG = experiment: Cellular proliferation assay (Alamar blue), U87-MG; assay type: cell-based; settings: Homo sapiens, U-87 MG; 10% FCS; 72 hours with compound; Alamar blue 6 h; read-out: U87-MG (cellular proliferation assay, Table 4) (converted)
Protocol: as §1, §2

MDA-MB-231 = experiment: Cellular proliferation assay (Alamar blue), MDA-MB-231; assay type: cell-based; settings: Homo sapiens, 10% FCS, 72 hours with compound, Alamar blue 24 h, read-out: MDA/MB231 (cellular proliferation assay, Table 4) (converted)
Protocol: as §1, §2

PLK3 (h) = PLK3 (h) (Homo sapiens, UniProt Q9H4B4); experiment: PLK3 human kinase inhibition, SPA; assay type: biochemical; settings: read-out: PLK3 pIC50 (converted)
Chain of PLK3 (h) (Q9H4B4 whole entry): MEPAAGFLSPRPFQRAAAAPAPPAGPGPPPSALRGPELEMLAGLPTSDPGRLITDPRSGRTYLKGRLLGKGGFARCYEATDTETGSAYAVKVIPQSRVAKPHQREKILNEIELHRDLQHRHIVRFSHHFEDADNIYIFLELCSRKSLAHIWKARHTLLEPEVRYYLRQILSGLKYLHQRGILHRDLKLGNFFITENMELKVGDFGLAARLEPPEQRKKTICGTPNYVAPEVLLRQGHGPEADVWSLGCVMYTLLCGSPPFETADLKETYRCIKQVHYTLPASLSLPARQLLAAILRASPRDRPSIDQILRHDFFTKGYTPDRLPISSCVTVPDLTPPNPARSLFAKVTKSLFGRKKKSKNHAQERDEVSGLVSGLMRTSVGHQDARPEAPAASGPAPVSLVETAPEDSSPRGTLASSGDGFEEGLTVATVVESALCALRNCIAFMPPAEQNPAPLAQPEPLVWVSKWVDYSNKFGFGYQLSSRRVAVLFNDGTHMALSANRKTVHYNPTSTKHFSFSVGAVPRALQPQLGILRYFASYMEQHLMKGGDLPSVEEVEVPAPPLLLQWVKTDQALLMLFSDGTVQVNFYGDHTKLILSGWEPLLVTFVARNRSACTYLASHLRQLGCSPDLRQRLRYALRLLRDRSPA
Protocol: as §5, §3, §4
(§6) In a final reaction volume of 30 μl, PLK3 (h) (30 μg/ml) is incubated with 50 mM Hepes pH 8.0, 2 mM MnCl2, 1 mM DTT, 2 μM of peptide Biotin-Tds linker-[…], 0.1 μM ATP and 2 nM [γ-^33P-ATP] (6.0 μCi/ml). After incubation of 20 minutes at room temperature, the reaction is stopped by addition of 40 μL of stop solution containing 8.7 mM EDTA, BSA 0.17%, 0.17% Triton X-100, 25 mg/ml SPA beads (GE-healthcare). The plate is centrifuged and read for Scintillation imaging on Leadseeker.

PLK1 T210D (h) = PLK1 T210D (h) (Homo sapiens, UniProt P53350, T210D); experiment: PLK1 human kinase inhibition, SPA; assay type: biochemical; settings: read-out: PLK1 pIC50 (converted)
Chain of PLK1 T210D (h) (P53350 whole entry T210D): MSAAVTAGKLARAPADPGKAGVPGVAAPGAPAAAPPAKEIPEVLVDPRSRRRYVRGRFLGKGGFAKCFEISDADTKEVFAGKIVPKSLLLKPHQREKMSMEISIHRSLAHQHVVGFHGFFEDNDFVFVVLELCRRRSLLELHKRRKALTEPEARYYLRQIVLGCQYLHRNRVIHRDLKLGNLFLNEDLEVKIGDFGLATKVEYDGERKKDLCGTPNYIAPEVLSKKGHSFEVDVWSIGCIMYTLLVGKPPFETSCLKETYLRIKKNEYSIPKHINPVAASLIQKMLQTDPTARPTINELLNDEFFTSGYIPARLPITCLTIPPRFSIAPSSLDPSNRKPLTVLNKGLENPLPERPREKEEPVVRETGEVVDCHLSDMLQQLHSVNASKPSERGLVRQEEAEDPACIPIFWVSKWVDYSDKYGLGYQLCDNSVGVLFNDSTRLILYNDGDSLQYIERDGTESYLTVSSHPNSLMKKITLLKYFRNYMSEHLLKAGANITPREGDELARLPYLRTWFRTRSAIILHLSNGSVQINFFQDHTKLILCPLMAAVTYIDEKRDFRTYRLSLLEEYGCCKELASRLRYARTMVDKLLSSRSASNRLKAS
Protocol: as §5, §3, §4
as §6, with “PLK1 T210D” for “PLK3”, “(0.125 ng/ml)” for “(30 μg/ml)”, “40” for “20”

GSK3β (h) = GSK3β (h) (Homo sapiens, UniProt P49841); experiment: GSK-3β human kinase inhibition, SPA; assay type: biochemical; settings: read-out: GSK3b pIC50 (converted)
Chain of GSK3β (h) (P49841 whole entry): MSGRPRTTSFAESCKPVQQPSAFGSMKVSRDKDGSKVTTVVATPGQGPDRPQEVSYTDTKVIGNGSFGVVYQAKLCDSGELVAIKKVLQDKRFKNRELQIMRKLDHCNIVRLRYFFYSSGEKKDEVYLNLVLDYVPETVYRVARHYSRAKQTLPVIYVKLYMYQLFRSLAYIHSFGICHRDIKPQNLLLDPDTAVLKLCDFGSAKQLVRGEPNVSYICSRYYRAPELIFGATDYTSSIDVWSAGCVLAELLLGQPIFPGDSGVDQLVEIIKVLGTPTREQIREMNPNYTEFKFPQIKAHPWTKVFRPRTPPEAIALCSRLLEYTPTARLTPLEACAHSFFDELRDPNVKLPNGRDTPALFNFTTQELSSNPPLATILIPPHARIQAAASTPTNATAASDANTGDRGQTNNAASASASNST
Protocol: as §5, §3, §4
In a final reaction volume of 30 μl, GSK3β (h) (1 μg/ml) is incubated with 25 mM Tris pH 7.4, 10 mM MgCl2, 1 mM DTT, 1 μM peptide Biotin-[…]-OH, 1 μM ATP and 2 nM [γ-^33P-ATP] (6.0 μCi/ml). After incubation of 60 minutes at room temperature, the reaction is stopped by addition of 40 μL of stop solution containing 8.7 mM EDTA, BSA 0.17%, 0.17% Triton X-100, 6.25 mg/ml SPA beads (GE-healthcare). The plate is centrifuged and read for Scintillation imaging on Leadseeker.

PLK2 (h) = PLK2 (h) (Homo sapiens, UniProt Q9NYY3); experiment: PLK2 human kinase inhibition, SPA; assay type: biochemical; settings: read-out: PLK2 pIC50 (converted)
Chain of PLK2 (h) (Q9NYY3 whole entry): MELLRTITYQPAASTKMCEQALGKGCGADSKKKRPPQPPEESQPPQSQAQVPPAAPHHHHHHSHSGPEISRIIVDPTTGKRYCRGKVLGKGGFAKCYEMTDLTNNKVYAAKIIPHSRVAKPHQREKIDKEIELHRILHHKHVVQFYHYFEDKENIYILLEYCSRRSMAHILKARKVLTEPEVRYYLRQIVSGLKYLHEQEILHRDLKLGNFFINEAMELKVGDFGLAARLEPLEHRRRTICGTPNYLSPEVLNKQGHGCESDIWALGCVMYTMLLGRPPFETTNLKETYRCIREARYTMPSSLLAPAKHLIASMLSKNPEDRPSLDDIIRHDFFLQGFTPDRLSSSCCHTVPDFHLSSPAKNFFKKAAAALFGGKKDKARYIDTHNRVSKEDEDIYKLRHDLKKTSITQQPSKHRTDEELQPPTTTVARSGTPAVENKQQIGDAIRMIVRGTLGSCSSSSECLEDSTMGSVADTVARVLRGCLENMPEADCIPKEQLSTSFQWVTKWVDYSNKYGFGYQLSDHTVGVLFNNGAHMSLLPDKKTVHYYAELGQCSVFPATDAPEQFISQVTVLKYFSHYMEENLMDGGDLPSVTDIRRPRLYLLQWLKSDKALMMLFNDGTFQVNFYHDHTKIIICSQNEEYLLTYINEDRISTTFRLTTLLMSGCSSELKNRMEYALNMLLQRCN
Protocol: as §5, §3, §4
as §6, with “PLK2” for “PLK3”

AuroraB (h) = AuroraB (h) (Homo sapiens, UniProt Q96GD4); experiment: Aurora-B human kinase inhibition, SPA; assay type: biochemical; settings: read-out: AuroraB pIC50 (converted)
Chain of AuroraB (h) (Q96GD4 whole entry): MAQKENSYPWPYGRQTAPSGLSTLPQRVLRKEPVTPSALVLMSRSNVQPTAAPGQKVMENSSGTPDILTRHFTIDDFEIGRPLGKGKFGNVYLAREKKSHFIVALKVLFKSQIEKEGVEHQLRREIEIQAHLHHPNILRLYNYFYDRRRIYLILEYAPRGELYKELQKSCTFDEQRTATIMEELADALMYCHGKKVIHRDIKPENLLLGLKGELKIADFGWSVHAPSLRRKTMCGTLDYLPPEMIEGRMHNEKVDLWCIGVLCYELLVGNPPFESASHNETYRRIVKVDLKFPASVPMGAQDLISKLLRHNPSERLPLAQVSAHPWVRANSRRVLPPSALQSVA
Protocol: as §5, §3, §4
In a final reaction volume of 30 μl, AuroraB (h) (0.5 μg/ml) is incubated with 60 mM Hepes pH 7.5, 3 mM MgCl2, 3 mM MnCl2, 3 μM Na3VO4, 0.05 mg/ml PEG, 2 mM DTT, 3 μM Biotin-[…]-OH, 0.5 μM ATP and 2.2 nM [γ-^33P-ATP] (6.8 μCi/ml). After incubation of 60 minutes at room temperature, the reaction is stopped by addition of 40 μL of stop solution containing 8.7 mM EDTA, BSA 0.17%, 0.17% Triton X-100, 5 mg/ml SPA beads (GE-healthcare). The plate is centrifuged and read for Scintillation imaging on Leadseeker.

Compound	IC50 (H1299)	IC50 (HCT-116)	IC50 (PLK4 (h))	IC50 (CDK1/CyclinB (h))	IC50 (A2780)	IC50 (U87-MG)	IC50 (MDA-MB-231)	IC50 (PLK3 (h))	IC50 (PLK1 T210D (h))	IC50 (GSK3β (h))	IC50 (PLK2 (h))	IC50 (AuroraB (h))
CC(C)Nc1cc2cc(c1)Nc1nccc(n1)-c1ccc(cc1)CN(C)CCCNC(=O)[C@H](CO)NC2 [Compound 111]	> 10 µM	> 10 µM	0.813 µM	> 10 µM	> 10 µM	> 10 µM	> 10 µM	> 10 µM	> 10 µM	> 10 µM	> 3.02 µM	> 10 µM
COc1ccc2cc1CN(C)CCCNC(=O)[C@H](CO)NCc1cc(Br)cc(c1)Nc1nccc-2n1 [Compound 112]	> 10 µM	> 10 µM	0.912 µM	> 10 µM	> 10 µM	> 10 µM	> 10 µM	> 10 µM	> 10 µM	3.89 µM	> 10 µM	3.31 µM
COc1ccc2cc1CN(C)CCNC(=O)[C@H](C)NCc1cc(ccc1N1CCOCC1)Nc1nccc-2n1 [Compound 116]	> 10 µM	4.07 µM	1.48 µM	> 10 µM	> 10 µM	5.75 µM	> 10 µM	> 10 µM	> 10 µM	> 10 µM	> 10 µM	> 10 µM
O=C1NCCNCc2ccc(cc2)-c2ccnc(n2)Nc2ccc(N3CCOCC3)c(c2)CN[C@H]1Cc1ccccc1 [Compound 117]	7.59 µM	4.27 µM	2.24 µM	> 10 µM	6.03 µM	3.89 µM	> 10 µM	> 10 µM	> 10 µM	1 µM	> 10 µM	> 10 µM
COc1ccc2cc1CN(C)CCNC(=O)[C@H](CO)NCc1cccc(c1)Nc1nccc-2n1 [Compound 120]	> 10 µM	> 10 µM	7.08 µM	> 10 µM	> 10 µM	> 10 µM	> 10 µM	> 10 µM	> 10 µM	> 10 µM	> 10 µM	> 10 µM
O=C1NCc2cccc(c2)-c2ccnc(n2)Nc2cc(ccc2Cl)CN2CCC1CC2 [Compound 123]	> 10 µM	> 10 µM	8.13 µM	1.91 µM	> 10 µM	> 10 µM	> 10 µM	> 10 µM	> 10 µM	2.75 µM	> 10 µM	> 10 µM
CC(C)Nc1cc2cc(c1)Nc1nccc(n1)-c1ccc(cc1)CN(C)CCNC(=O)CN1CCN(CC1)C2 [Compound 128]	> 10 µM	> 10 µM	1.02 µM	1.38 µM	> 10 µM	7.94 µM	> 10 µM	> 10 µM	> 10 µM	1.95 µM	> 10 µM	> 10 µM
CN1CCNC(=O)CN2CCN(CC2)Cc2cc(Br)cc(c2)Nc2nccc(n2)-c2ccc(cc2)C1 [Compound 129]	> 10 µM	8.51 µM	1.12 µM	4.17 µM	> 10 µM	4.9 µM	> 10 µM	> 3.02 µM	> 10 µM	0.49 µM	> 10 µM	> 10 µM
CN1CCCNC(=O)CN2CCN(CC2)Cc2cc(cc(N3CCOCC3)c2)Nc2nccc(n2)-c2ccc(cc2)C1 [Compound 136]	3.02 µM	0.355 µM	1.82 µM	> 10 µM	2.34 µM	1.7 µM	> 10 µM	> 10 µM	> 10 µM	6.76 µM	> 10 µM	> 10 µM
O=C1CN2CCN(CC2)Cc2cc(ccc2N2CCOCC2)Nc2nccc(n2)-c2ccc(cc2)CNCCCN1 [Compound 139]	> 10 µM	7.41 µM	2.19 µM	> 10 µM	7.41 µM	2.09 µM	> 10 µM	> 10 µM	> 10 µM	> 10 µM	> 10 µM	> 10 µM
COc1cc2cc(c1OC)CNC(=O)[C@@H]1CCCN1Cc1cccc(c1)-c1ccnc(n1)N2 [Compound 150]	> 10 µM	4.27 µM	0.832 µM	5.89 µM	> 10 µM	> 10 µM	> 10 µM	> 10 µM	> 10 µM	0.1 µM	> 10 µM	> 10 µM
